Experimental data reported in ChEMBL document CHEMBL4376865, “Discovery and Characterization of 1H-1,2,3-Triazole Derivatives as Novel Prostanoid EP4 Receptor Antagonists for Cancer Immunotherapy” (J Med Chem, 2020).

How the values were obtained:
[1] = biological target: Prostaglandin E2 receptor EP4 subtype (Homo sapiens, UniProt P35408)
Description: Antagonist activity at human EP4 expressed in CHO cells coexpressing G16-alpha assessed as intracellular calcium flux preincubated for 15 mins followed by addition of PGE2 by calcium flux assay

in vitro [2] = settings: human, liver microsomes
in vitro [3] = settings: CD1, mouse, liver microsomes
in vitro [4] = settings: human, liver microsomes; remark: listed apart in the source
in vitro [5] = settings: CD1, mouse, liver microsomes; remark: listed apart in the source
[6] = biological target: Prostaglandin E2 receptor EP4 subtype (Mus musculus, UniProt P32240); assay: Antagonist activity at mouse EP4 expressed in CHO cells coexpressing G16-alpha assessed as intracellular calcium flux preincubated for 15 mins followed by addition of PGE2 by calcium flux assay; format: functional, cell-based
CYP2D6 = CYP2D6 (Homo sapiens, UniProt P10635); assay: Inhibition of CYP2D6 in human liver microsomes at 20 uM using dextromethorphan as substrate incubated for 60 mins by HPLC analysis relative to control; format: ADME; settings: probe dextromethorphan
Cytochrome P450 3A4 = Cytochrome P450 3A4 (Homo sapiens, UniProt P08684); assay: Inhibition of CYP3A4 in human liver microsomes at 20 uM using testosterone as substrate incubated for 60 mins by HPLC analysis; format: ADME; settings: 1 h
[7] = biological target: Prostaglandin E2 receptor EP2 subtype (Homo sapiens, UniProt P43116)
Description: Antagonist activity at human EP2 expressed in CHO cells coexpressing G16-alpha assessed as intracellular calcium flux preincubated for 15 mins followed by addition of PGE2 by calcium flux assay

CYP1A2 = biological target: T1, CYP1A2 (Homo sapiens, UniProt P05177); assay: Inhibition of CYP1A2 in human liver microsomes at 20 uM using phenacetin as substrate incubated for 30 mins by HPLC analysis relative to control; format: ADME; settings: probe phenacetin
T1 sequence (P05177 whole entry): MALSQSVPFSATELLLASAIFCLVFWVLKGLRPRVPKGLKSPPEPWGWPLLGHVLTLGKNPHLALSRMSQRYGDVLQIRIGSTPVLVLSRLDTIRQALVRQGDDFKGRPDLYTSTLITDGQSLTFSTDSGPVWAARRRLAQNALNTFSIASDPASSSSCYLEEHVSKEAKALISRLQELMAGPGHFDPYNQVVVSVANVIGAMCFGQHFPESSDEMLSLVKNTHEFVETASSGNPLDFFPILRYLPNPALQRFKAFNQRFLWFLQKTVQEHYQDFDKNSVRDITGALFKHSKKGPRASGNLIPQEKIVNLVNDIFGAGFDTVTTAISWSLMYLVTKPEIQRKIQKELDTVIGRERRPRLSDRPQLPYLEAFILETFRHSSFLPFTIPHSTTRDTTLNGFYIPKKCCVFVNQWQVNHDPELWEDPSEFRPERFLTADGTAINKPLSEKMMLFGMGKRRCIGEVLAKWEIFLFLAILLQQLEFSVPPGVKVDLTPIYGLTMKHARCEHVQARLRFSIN

CYP2E1 = CYP2E1 (Homo sapiens, UniProt P05181); assay: Inhibition of CYP2E1 in human liver microsomes at 20 uM using chlorzoxazone as substrate incubated for 60 mins by HPLC analysis relative to control; format: ADME; settings: probe chlorzoxazone
CYP2B6 = biological target: T2, CYP2B6 (Homo sapiens, UniProt P20813); assay: Inhibition of CYP2B6 in human liver microsomes at 20 uM incubated for 60 mins by HPLC analysis relative to control; format: ADME
T2 sequence (P20813 whole entry): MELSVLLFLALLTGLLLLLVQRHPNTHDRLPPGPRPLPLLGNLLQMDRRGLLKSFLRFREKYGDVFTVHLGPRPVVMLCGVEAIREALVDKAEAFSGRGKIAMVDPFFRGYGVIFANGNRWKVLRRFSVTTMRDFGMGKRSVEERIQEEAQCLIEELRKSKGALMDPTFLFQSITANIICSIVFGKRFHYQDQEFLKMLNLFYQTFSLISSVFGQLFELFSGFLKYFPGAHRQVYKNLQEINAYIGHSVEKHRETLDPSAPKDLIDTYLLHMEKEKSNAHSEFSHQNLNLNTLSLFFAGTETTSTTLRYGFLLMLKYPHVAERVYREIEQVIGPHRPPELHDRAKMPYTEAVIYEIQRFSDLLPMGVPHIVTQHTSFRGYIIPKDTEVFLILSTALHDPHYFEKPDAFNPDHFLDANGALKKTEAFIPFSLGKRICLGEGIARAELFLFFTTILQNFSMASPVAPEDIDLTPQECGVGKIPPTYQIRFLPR

[8] = biological target: T3, Prostaglandin E2 receptor EP1 subtype (Homo sapiens, UniProt P34995); assay: Antagonist activity at human EP1 expressed in CHO cells coexpressing G16-alpha assessed as intracellular calcium flux preincubated for 15 mins followed by addition of PGE2 by calcium flux assay; format: functional, cell-based
T3 sequence (P34995 whole entry): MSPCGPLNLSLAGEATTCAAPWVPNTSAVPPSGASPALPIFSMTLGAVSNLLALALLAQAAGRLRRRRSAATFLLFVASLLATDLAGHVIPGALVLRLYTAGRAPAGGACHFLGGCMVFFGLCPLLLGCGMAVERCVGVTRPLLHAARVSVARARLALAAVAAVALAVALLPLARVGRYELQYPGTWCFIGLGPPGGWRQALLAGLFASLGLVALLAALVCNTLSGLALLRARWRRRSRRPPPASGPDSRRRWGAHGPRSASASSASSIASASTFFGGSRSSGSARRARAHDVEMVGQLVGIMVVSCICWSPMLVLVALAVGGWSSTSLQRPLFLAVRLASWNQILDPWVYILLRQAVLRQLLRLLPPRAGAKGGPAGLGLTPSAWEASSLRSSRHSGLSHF

CYP2C9 = CYP2C9 (Homo sapiens, UniProt P11712); assay: Inhibition of CYP2C9 in human liver microsomes at 20 uM using tolbutamide as substrate incubated for 60 mins by HPLC analysis relative to control; format: ADME; settings: probe tolbutamide
[9] = biological target: T4, Prostaglandin E2 receptor EP3 subtype (Homo sapiens, UniProt P43115)
T4 sequence (P43115 whole entry): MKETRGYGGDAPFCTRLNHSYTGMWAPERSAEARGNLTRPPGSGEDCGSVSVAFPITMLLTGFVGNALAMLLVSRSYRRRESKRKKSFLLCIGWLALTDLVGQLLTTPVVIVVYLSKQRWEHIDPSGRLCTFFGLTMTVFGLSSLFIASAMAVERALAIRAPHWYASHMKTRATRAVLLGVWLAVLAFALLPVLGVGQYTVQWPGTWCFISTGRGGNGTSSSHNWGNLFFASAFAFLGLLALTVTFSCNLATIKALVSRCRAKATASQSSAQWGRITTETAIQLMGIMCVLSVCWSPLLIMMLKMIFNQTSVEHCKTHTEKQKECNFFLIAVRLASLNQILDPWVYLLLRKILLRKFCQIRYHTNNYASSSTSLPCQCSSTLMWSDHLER
Description: Antagonist activity at human EP3 expressed in CHO cells coexpressing G16-alpha assessed as intracellular calcium flux preincubated for 15 mins followed by addition of PGE2 by calcium flux assay

Chain of Prostaglandin E2 receptor EP4 subtype (Homo sapiens, UniProt P35408) (P35408 whole entry): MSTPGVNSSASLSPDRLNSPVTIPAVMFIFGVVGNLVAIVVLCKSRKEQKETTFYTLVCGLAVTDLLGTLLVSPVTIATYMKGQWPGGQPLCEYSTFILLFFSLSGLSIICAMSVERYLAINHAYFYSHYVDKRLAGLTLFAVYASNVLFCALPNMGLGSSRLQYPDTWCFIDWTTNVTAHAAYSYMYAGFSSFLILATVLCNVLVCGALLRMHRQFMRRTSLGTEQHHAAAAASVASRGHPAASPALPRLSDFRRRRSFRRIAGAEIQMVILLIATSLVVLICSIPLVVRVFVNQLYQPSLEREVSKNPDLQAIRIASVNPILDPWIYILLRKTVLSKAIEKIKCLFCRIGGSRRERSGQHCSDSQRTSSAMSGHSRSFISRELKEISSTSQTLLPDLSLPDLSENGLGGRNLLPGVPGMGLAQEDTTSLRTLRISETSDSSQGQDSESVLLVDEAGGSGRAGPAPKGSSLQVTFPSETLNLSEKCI
Chain of Prostaglandin E2 receptor EP4 subtype (Mus musculus, UniProt P32240) (P32240 whole entry): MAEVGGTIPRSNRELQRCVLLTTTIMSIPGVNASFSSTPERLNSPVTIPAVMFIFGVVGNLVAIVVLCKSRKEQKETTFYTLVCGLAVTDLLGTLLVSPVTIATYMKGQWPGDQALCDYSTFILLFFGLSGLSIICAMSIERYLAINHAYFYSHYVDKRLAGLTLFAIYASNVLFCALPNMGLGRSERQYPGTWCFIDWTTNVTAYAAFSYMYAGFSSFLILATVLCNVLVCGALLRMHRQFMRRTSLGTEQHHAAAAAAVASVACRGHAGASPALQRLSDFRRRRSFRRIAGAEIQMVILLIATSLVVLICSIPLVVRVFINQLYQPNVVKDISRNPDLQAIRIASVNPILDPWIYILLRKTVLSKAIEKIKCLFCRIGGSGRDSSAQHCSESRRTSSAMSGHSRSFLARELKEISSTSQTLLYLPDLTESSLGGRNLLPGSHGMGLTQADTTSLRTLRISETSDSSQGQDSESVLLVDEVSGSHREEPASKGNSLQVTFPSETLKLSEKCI
Chain of Prostaglandin E2 receptor EP2 subtype (P43116 whole entry): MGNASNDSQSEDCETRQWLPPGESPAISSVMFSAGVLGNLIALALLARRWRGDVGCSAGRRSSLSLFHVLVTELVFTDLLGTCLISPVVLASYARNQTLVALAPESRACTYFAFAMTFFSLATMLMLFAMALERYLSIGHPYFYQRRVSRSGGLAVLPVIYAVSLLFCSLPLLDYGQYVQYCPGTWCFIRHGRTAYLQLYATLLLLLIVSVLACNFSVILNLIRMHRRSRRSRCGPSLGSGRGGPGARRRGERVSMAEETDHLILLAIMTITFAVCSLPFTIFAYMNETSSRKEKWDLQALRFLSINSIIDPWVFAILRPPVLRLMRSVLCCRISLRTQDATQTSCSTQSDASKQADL
Chain of CYP2E1 (P05181 whole entry): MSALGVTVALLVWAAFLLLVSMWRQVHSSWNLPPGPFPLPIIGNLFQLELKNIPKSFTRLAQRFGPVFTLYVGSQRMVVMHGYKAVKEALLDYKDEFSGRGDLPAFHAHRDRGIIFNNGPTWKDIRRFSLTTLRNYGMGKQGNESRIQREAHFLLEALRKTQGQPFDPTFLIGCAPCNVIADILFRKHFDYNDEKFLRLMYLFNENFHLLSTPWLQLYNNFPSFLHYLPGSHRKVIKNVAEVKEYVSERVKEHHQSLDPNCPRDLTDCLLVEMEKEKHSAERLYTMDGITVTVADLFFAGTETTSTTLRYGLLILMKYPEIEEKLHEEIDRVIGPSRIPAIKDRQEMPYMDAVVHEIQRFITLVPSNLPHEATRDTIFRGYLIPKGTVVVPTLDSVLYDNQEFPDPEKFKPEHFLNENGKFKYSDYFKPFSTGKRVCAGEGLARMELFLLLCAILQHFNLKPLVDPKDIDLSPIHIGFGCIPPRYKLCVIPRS
Chain of Cytochrome P450 3A4 (P08684 whole entry): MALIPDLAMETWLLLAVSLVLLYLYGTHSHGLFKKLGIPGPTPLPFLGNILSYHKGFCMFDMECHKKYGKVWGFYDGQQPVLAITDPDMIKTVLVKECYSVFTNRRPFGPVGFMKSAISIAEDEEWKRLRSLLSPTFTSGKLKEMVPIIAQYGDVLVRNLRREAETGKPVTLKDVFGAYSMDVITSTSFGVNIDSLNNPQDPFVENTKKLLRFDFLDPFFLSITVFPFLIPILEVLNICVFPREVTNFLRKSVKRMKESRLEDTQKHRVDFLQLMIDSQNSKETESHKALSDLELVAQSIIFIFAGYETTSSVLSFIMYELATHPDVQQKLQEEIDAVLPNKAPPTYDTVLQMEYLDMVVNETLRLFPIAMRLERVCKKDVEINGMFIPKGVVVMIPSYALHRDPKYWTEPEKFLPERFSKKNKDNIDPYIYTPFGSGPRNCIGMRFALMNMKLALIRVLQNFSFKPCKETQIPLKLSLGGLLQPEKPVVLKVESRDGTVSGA
Chain of CYP2D6 (P10635 whole entry): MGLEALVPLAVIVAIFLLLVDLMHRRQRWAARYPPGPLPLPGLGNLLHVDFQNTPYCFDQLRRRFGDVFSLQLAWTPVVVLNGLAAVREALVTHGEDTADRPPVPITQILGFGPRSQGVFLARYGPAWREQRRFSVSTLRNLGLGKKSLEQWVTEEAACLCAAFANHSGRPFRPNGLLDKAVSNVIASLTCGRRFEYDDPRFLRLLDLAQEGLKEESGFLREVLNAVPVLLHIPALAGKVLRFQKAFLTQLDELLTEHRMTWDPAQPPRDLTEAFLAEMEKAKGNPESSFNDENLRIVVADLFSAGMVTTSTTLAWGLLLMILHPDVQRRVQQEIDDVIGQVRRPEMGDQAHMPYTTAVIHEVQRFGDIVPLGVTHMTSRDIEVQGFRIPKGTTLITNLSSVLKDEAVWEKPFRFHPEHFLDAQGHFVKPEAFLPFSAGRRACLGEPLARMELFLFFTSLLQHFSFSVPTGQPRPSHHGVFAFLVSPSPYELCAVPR
Chain of CYP2C9 (P11712 whole entry): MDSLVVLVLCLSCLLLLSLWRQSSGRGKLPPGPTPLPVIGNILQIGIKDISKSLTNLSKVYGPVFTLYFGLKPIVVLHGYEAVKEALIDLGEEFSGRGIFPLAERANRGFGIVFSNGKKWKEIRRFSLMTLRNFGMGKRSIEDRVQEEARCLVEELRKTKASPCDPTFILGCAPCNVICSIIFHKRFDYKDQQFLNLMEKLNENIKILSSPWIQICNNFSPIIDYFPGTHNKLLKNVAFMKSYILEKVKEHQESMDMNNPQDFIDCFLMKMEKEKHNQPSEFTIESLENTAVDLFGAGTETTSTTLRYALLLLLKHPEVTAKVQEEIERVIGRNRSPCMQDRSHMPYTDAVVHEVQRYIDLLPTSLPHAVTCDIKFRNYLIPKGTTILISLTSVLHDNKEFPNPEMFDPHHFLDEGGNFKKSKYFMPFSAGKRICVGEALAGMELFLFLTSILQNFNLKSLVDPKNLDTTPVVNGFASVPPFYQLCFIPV

C[C@H](NC(=O)c1c(-c2ccccc2)nnn1CC1CCCCC1)c1ccc(C(=O)O)cc1
IC50 [1]: > 10000 nM

C[C@H](NC(=O)c1cnnn1Cc1ccc(C(F)(F)F)cc1)c1ccc(C(=O)O)cc1
IC50 [1]: > 10000 nM

COc1ccc(Cn2nnc(-c3ccccc3)c2C(=O)N[C@@H](C)c2ccc(C(=O)O)cc2)cc1
IC50 [1]: 9.3 nM

O=C(O)Cc1ccccc1Nc1c(Cl)cccc1Cl [DICLOFENAC]
half-life at 1 h, 10 µM (in vitro [2]): 10.6 min
microsomal CLint at 1 h, 10 µM (in vitro [3]): 25.8 µL/min/mg
microsomal CLint at 1 h, 10 µM (in vitro [4]): 131 µL/min/mg
half-life at 1 h, 10 µM (in vitro [5]): 53.6 min

CCCc1c(C(=O)N[C@@H](C)c2ccc(C(=O)O)cc2)nnn1Cc1ccc(C(F)(F)F)cc1
IC50 [1]: > 10000 nM

C[C@H](NC(=O)c1c(C2=CCCCC2)nnn1Cc1ccc(C(F)(F)F)cc1)c1ccc(C(=O)O)cc1
IC50 [1]: 183 nM

CC#Cc1nnn(Cc2ccc(C(F)(F)F)cc2)c1C(=O)N[C@@H](C)c1ccc(C(=O)O)cc1
IC50 [6]: 70.9 nM
inhibition at 1 h, 20 µM (CYP2D6): 38%
inhibition (INH) (Cytochrome P450 3A4): Not Active
IC50 [7]: > 10000 nM
IC50 [1]: 32 nM
inhibition at 0.5 h, 20 µM (CYP1A2): 82%
inhibition at 1 h, 20 µM (CYP2E1): 76%
inhibition at 1 h, 20 µM (CYP2B6): 34%
IC50 [8]: > 10000 nM
inhibition at 1 h, 20 µM (CYP2C9): 69%

C[C@H](NC(=O)c1c(C2CCCCC2)nnn1Cc1ccc(C(F)(F)F)cc1)c1ccc(C(=O)O)cc1
IC50 [1]: 161 nM

Cc1ccc(-c2nnn(Cc3ccc(C(F)(F)F)cc3)c2C(=O)N[C@@H](C)c2ccc(C(=O)O)cc2)s1
IC50 [6]: 42.1 nM
IC50 [9]: > 10000 nM
IC50 [7]: > 10000 nM
IC50 [8]: > 10000 nM

C[C@H](NC(=O)c1c(C2=CCCC2)nnn1Cc1ccc(C(F)(F)F)cc1)c1ccc(C(=O)O)cc1
IC50 [6]: 400 nM
IC50 [9]: > 10000 nM
IC50 [7]: > 10000 nM
IC50 [8]: > 10000 nM

C[C@H](NC(=O)c1c(C(F)(F)F)nnn1CCc1ccc(F)cc1)c1ccc(C(=O)O)cc1
IC50 [1]: > 10000 nM

C/C=C/c1nnn(Cc2ccc(C(F)(F)F)cc2)c1C(=O)N[C@H](C)c1ccc(C(=O)O)cc1
IC50 [1]: > 1000 nM

C/C=C/c1nnn(Cc2ccc(C(F)(F)F)cc2)c1C(=O)NC1(c2ccc(C(=O)O)cc2)CC1
IC50 [6]: 33.7 nM
IC50 [1]: 13.9 nM

C[C@H](NC(=O)c1c(-c2ccccc2)nnn1Cc1ccc(F)cc1)c1ccc(C(=O)O)cc1
IC50 [1]: 330 nM

COc1cccc(Cn2nnc(-c3ccccc3)c2C(=O)N[C@@H](C)c2ccc(C(=O)O)cc2)c1
IC50 [1]: 96.8 nM

C[C@]12CC[C@H]3[C@@H](CCC4=CC(=O)CC[C@@]43C)[C@@H]1CC[C@@H]2O [TESTOSTERONE]
half-life at 1 h, 10 µM (in vitro [2]): 19.4 min
microsomal CLint at 1 h, 10 µM (in vitro [3]): 479 µL/min/mg
microsomal CLint at 1 h, 10 µM (in vitro [4]): 71.3 µL/min/mg
half-life at 1 h, 10 µM (in vitro [5]): 2.9 min

C[C@H](NC(=O)c1c(-c2ccccc2)nnn1CCOc1ccc(C(F)(F)F)cc1)c1ccc(C(=O)O)cc1
IC50 [1]: 49.1 nM
